Measured values taken from patent publication US7598258B2, “Quinoline derivatives and quinazoline derivatives inhibiting autophosphorylation of macrophage colony stimulating factor receptor” (Kirin Beer Kabushiki Kaisha, priority 2002, dated 2009).

target: T1, mouse c-fms (Mus musculus, UniProt P09581); experiment: Inhibition of c-fms autophosphorylation in macrophage-like cell line BAC-1.2F5 by M-CSF stimulation (ELISA); format: cell-based; conditions: BAC-1.2F5 cells, human recombinant M-CSF 50 ng/ml, read-out: c-fms autophosphorylation 50% inhibitory concentration (IC50)
T1 construct: Macrophage-like cell line BAC-1.2F5 which expresses c-fms as a M-CSF receptor on cell membranes; endogenous in cells; host or cells: BAC-1.2F5 mouse macrophage-like cell line
T1 sequence (P09581 20-977): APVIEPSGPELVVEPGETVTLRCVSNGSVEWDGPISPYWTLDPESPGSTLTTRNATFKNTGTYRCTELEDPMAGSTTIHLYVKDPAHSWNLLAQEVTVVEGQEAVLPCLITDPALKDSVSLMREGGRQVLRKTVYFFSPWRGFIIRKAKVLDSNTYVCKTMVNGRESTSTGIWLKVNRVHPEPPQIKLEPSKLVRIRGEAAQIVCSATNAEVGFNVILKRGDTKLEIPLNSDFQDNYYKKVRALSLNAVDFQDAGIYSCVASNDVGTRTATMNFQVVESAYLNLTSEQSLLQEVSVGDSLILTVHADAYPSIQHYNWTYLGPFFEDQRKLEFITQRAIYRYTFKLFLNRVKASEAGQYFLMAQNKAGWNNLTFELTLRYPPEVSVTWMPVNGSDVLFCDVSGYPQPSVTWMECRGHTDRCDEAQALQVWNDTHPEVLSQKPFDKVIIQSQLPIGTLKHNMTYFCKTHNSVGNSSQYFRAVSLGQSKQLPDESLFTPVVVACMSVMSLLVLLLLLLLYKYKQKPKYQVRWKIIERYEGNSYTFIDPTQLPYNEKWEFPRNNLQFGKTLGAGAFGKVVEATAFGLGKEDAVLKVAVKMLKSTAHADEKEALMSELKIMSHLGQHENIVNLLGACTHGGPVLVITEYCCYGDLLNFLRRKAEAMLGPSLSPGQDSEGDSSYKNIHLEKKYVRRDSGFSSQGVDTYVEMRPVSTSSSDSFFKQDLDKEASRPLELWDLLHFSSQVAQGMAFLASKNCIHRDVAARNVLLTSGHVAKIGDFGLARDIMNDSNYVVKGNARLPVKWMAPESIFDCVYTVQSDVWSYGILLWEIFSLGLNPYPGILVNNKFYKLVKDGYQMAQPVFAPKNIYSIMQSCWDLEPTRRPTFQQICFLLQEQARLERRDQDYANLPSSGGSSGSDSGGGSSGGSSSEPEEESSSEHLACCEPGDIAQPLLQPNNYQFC
Outline: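 BAC-1.2F5 cells serum-starved (0.1% FCS) 12 h, preincubated with compound 1 h at 37° C, then stimulated 6 min with 50 ng/ml human recombinant M-CSF. Lysates captured on anti-phosphotyrosine plates, detected with anti-c-fms antiserum and peroxidase read-out at 450 nm. IC50 from inhibition normalised between ±M-CSF controls.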

Row | SMILES | IC50
1 | COc1cc2nccc(Oc3ccc(NC(=O)N[C@@H](C)c4ccc([N+](=O)[O-])cc4)cc3)c2cc1OC [Example 35, N-{4-[(6,7-Dimethoxy-4-quinolyl)oxy]phenyl}-N′-[(1S)-1-(4-nitrophenyl)ethyl]urea] | 12.1 nM
2 | COc1cc2nccc(Oc3ccc(NC(=O)N[C@H](C)c4ccc([N+](=O)[O-])cc4)cc3)c2cc1OC [Example 36, N-{4-[(6,7-Dimethoxy-4-quinolyl)oxy]phenyl}-N′-[(1R)-1-(4-nitrophenyl)ethyl]urea] | 31.1 nM
3 | COc1cc2nccc(Oc3ccc(NC(=O)N[C@H](C)c4ccc(C)cc4)cc3)c2cc1OC [Example 42, N-{4-[(6,7-Dimethoxy-4-quinolyl)oxy]phenyl}-N′-[(1R)-1-(4-methylphenyl)ethyl]urea] | 38.5 nM
4 | COc1cc2nccc(Oc3ccc(NC(=O)N[C@H](C)c4cccc(Br)c4)cc3)c2cc1OC [Example 45, N-[(1R)-1-(3-Bromophenyl)ethyl]-N′-{4-[(6,7-dimethoxy-4-quinolyl)oxy]phenyl}urea] | 22.2 nM
5 | COc1cc2nccc(Oc3ccc(NC(=O)N[C@@H](C)c4cccc(Br)c4)cc3)c2cc1OC [Example 46, N-[(1S)-1-(3-Bromophenyl)ethyl]-N′-{4-[(6,7-dimethoxy-4-quinolyl)oxy]phenyl}urea] | 7.3 nM
6 | COc1cc2nccc(Oc3ccc(NC(=O)N[C@H](C)c4ccc(Cl)cc4)cc3)c2cc1OC [Example 48, N-[(1R)-1-(4-Chlorophenyl)ethyl]-N′-{4-[(6,7-dimethoxy-4-quinolyl)oxy]phenyl}urea] | 40 nM
7 | COc1cccc([C@@H](C)NC(=O)Nc2ccc(Oc3ccnc4cc(OC)c(OC)cc34)cc2)c1 [Example 50, N-{4-[(6,7-Dimethoxy-4-quinolyl)oxy]phenyl}-N′-[(1R)-1-(3-methoxyphenyl)ethyl]urea] | 7.2 nM

Now those with a lower IC50, led by results:

Row | IC50 | SMILES
8 | 2.2 nM | COc1cc2nccc(Oc3ccc(NC(=O)N[C@@H](C)c4ccc(F)cc4)cc3)c2cc1OC [Example 2, N-{4-[(6,7-Dimethoxy-4-quinolyl)oxy]phenyl}-N′-[(1S)-1-(4-fluorophenyl)ethyl]urea]
9 | 2.4 nM | COc1cc2nccc(Oc3ccc(NC(=O)N[C@H](C)c4ccc(F)cc4)cc3)c2cc1OC [Example 3, N-{4-[(6,7-Dimethoxy-4-quinolyl)oxy]phenyl}-N′-[(1R)-1-(4-fluorophenyl)ethyl]urea]
10 | 2.8 nM | COc1cc2nccc(Oc3ccc(NC(=O)N[C@@H](C)c4ccc(C)cc4)cc3)c2cc1OC [Example 41, N-{4-[(6,7-Dimethoxy-4-quinolyl)oxy]phenyl}-N′-[(1S)-1-(4-methylphenyl)ethyl]urea]
11 | 3.8 nM | COc1cc2nccc(Oc3ccc(NC(=O)N[C@@H](C)c4ccc(Cl)cc4)cc3)c2cc1OC [Example 47, N-[(1S)-1-(4-Chlorophenyl)ethyl]-N′-{4-[(6,7-dimethoxy-4-quinolyl)oxy]phenyl}urea]
12 | 3.2 nM | COc1cccc([C@H](C)NC(=O)Nc2ccc(Oc3ccnc4cc(OC)c(OC)cc34)cc2)c1 [Example 49, N-{4-[(6,7-Dimethoxy-4-quinolyl)oxy]phenyl}-N′-[(1S)-1-(3-methoxyphenyl)ethyl]urea]
